Experiments:
whole rat livers [1] = experiment: Optimized partial freezing of whole rat livers: SNMP recovery after freezing; settings: −10° C., 1 day; at 3 h
Experimental: (§1) Within this standardized protocol, we first compared GLY, EG, and PG as main permeating CPA using a freezing temperature of −10° C. and storage duration of 1 day (FIG. 37). Using PG as the CPA, we subsequently tested the effect of freezing temperature (−10° C. vs −15° C.) and storage duration (1 day vs 5 days) on liver viability after partial freezing using the same protocol (FIG. 38).
Machine perfusion system: The perfusion system provides a continuous perfusion through the portal vein that is pressure, flow, and temperature controlled. The perfusates can be either recirculated or flushed with a single pass though the liver and perfusates can be changed without interrupting perfusion. The setup and operation of the perfusion system is described in detail elsewhere (see, e.g., ref. 15). There were two oxygenators used in this study, including the Radnoti (Cat #130144) and Affinity Pixie Oxygenator (Cat #BBP241). Due to the flexibility and low cost of the Radnoti oxygenator, it was first used for initial optimization and characterization studies, including determining the effect of permeating CPAs (GLY vs EG vs PG; FIG. 37), temperature (−10 vs −15° C., FIG. 38) storage duration (1 vs 5 days, FIG. 38), and warm ischemic injury. Once the major aspects of the protocol were optimized and characterized, we used the clinical grade Affinity Pixie Oxygenator. […]

whole rat livers [2] = experiment: Optimized partial freezing of whole rat livers: ex vivo simulated transplantation (normothermic reperfusion with whole blood); settings: −10° C., 1 day
Experimental: as §1
The Affinity Pixie Oxygenator is a clinical grade oxygenator that has graduated fiber bundle density technology and radial flow path that is designed to create a more uniform blood flow, enhance gas transfer, reduce pressure drops, and decrease prime volume. Moreover, it also contains a Balance® Biosurface that contains a hydrophilic polymer coating to reduce platelet adhesion and activation. This adaptation to the oxygenator is essential since recirculating whole blood during simulated transplantation may trigger coagulation and inflammatory events that are not representative of in vivo events and could skew observed outcomes.
Machine perfusion system: The perfusion system provides a continuous perfusion through the portal vein that is pressure, flow, and temperature controlled. The perfusates can be either recirculated or flushed with a single pass though the liver and perfusates can be changed without interrupting perfusion. The setup and operation of the perfusion system is described in detail elsewhere (see, e.g., ref. 15). There were two oxygenators used in this study, including the Radnoti (Cat #130144) and Affinity Pixie Oxygenator (Cat #BBP241). Due to the flexibility and low cost of the Radnoti oxygenator, it was first used for initial optimization and characterization studies, including determining the effect of permeating CPAs (GLY vs EG vs PG; FIG. 37), temperature (−10 vs −15° C., FIG. 38) storage duration (1 vs 5 days, FIG. 38), and warm ischemic injury.
Preconditioning during SNMP: Directly after procurement the livers were perfused with 250 ml of SNMP preloading solution (see Table 7 for composition of all solutions). The perfusion temperature was set at 21° C. and perfusion was initiated at 5 ml/min. […] Next, the livers were perfused for 30 additional minutes to allow for cellular uptake of 3-O-methyl-D-glucose (3-OMG).
Preloading of CPAs during HMP: The SNMP preloading solution was gradually switched to HMP preloading solution in […] increments, each with 10% decreasing and 10% increasing volumetric fractions of SNMP and HMP preloading solution, respectively. During this switch, the perfusion temperature was lowered to 4° C., and flows were adjusted to a maximum perfusion pressure of 3 mmHg. Dependent on the flowrate, the solution switch took 10-15 minutes. The HMP preloading was continued for 30 additional minutes to ensure complete equilibration of the solution throughout the peripheral liver tissue.
This was done in 10 fractions of 10 ml, each with 10% decreasing and 10% increasing volumetric fractions of HMP preloading solution and storage solution, respectively. During this switch, the perfusion temperature was maintained at 4° C., and the flowrates were lowered to ensure a maximum perfusion pressure of 3 mmHg. The final 15 ml fraction of 100% storage solution was loaded at a fixed flowrate of 0.5 ml/min.
Partial freezing: After loading of the storage solution, the liver was placed in a bag with 50 ml fresh storage solution and suspended in a pre-cooled chiller (Engel, Schwertberg, Austria). Depending on the experimental condition the chiller temperature was pre-cooled to −10° C. or −15° C. and the liver stored for […] 5 days.

For `OCC(O)CO` [GLY, glycerol], which “weight gain during SNMP recovery” value (whole rat livers [1]) is on record?
Its value is 35.00±20.49%.

What about the “bile production during simulated transplantation” value (whole rat livers [2]) of the same compound?
Its value is “did not produce bile”.

What about the “lactate clearance after first hour of simulated transplantation” value (whole rat livers [2]) of the same compound?
Its value is “not observed”.

And the “microscopic tissue structure (H&E, blinded pathologist)” value (whole rat livers [2])?
The value was “most unfavorable results”.

What about the oxygen uptake during simulated transplantation (whole rat livers [2]; at 2 h) of the same compound?
Its oxygen uptake during simulated transplantation is 17.9 ± 5.86 µL O2/min/g.

And the “tissue adenylate energy charge” value (whole rat livers [2]; at 2 h)?
Its value is 0.064±0.039.

And the “weight gain during simulated transplantation” value (whole rat livers [2]; at 2 h)?
The value was 19.00±16.63%.

And the AST levels (whole rat livers [2]; at 2 h of simulated transplantation)?
Its AST levels is 1528±388 U/L.

Source: patent publication US20240268372A1, “Methods and Compositions for Extending Organ and Tissue Preservation” (The General Hospital Corporation, priority 2021, published 2024)
